Experimental data published in patent EP2388012A1 (Roehampton University, priority 2010, dated 2011).
Where no end group is shown, it is not given here. The star is where a group is joined. Biotin = O=C1N[C@H]2[C@H](CS[C@H]2CCCCC(=O)*)N1

How the values were obtained:
[1] = system: biotinylated Aß 1-42 to the Kissorphin-6 peptide; format: binding, human
[2] = system: biotinylated IAPP 1-37 to the Kissorphin-6 peptide; format: binding, human
[3] = system: biotinylated PrP 106-126 to the Kissorphin-6 peptide
Aß 1-42 fibrils = format: binding, human
Aß 25-35 fibrils = format: binding, human
IAPP 1-37 fibrils = format: binding, human
IAPP 20-29 fibrils = format: binding, human
Amyloid-Bri fibrils = format: binding, human
Amyloid-Dan fibrils = format: binding, human
Aß 1-42 = format: binding, human; conditions: 4°C 16 hours
IAPP 1-37 = format: binding, human; conditions: 4°C 16 hours
[4] = system: human neuroblastoma SH-SY5Y cell line; format: cell-based
[5] = biological target: GPR-54 G-protein coupled receptor (mouse) (UniProt Q91V45); assay: cell-based or functional assay
[6] = system: mouse LHRH secreting cell line (GT1); format: cell-based
[7] = biological target: T1, GPR-54 G-protein coupled receptor (mouse), Q91V45; assay: cell-based or functional assay
T1 chain: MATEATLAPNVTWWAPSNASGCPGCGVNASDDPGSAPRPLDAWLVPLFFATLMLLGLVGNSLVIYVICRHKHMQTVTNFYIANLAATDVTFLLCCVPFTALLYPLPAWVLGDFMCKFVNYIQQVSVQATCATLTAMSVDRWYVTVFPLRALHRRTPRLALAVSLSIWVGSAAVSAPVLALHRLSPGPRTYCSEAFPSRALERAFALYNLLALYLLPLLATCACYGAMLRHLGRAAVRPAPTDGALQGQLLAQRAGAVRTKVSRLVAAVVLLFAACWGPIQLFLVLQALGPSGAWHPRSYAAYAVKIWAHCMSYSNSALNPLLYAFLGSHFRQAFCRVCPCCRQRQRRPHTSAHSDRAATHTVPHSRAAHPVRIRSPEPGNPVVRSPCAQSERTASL

Aß 1-28: Aß fragment, unlabelled competitor
effect on binding of biotinylated Aß 1-42 to the Kissorphin-6 peptide [1]: no effect
effect on binding of biotinylated IAPP 1-37 to the Kissorphin-6 peptide [2]: no effect
effect on binding of biotinylated PrP 106-126 to the Kissorphin-6 peptide [3]: no effect

Aß 29-40: Aß fragment, unlabelled competitor (GAIIGLMVGGVV; Amyloid-beta protein 40; UniProt P05067 700-711, looked up, fragment)
effect on binding of biotinylated Aß 1-42 to the Kissorphin-6 peptide [1]: strongly inhibited
effect on binding of biotinylated IAPP 1-37 to the Kissorphin-6 peptide [2]: strongly inhibited
effect on binding of biotinylated PrP 106-126 to the Kissorphin-6 peptide [3]: strongly inhibited

Biotinylated Kisspeptin-10: N-terminally Biotinylated Kisspeptin-10, purchased from Bachem or Alpha Diagnostics
binding to plates coated with Aß 1-42 fibrils (Aß 1-42 fibrils): bound
binding to plates coated with Aß 25-35 fibrils (Aß 25-35 fibrils): bound
binding to plates coated with IAPP 1-37 fibrils (IAPP 1-37 fibrils): bound
binding to plates coated with IAPP 20-29 fibrils (IAPP 20-29 fibrils): bound
binding to Amyloid-Bri fibrils (Amyloid-Bri fibrils): No binding
binding to Amyloid-Dan fibrils (Amyloid-Dan fibrils): No binding
binding to plates coated with PrP 106-126 fibrils (PrP 106-126 fibrils): bound
binding to plates coated with PrP 118-135 fibrils (PrP 118-135 fibrils): bound

Kisspeptin-54: the 54 amino acid form of Kisspeptin, peptide derived from the Kiss1 gene, ligand for GPR-54 (SEQ ID No. 1)
binding of biotinylated Aß 1-42 to peptide coated plates (Aß 1-42): significant binding
binding of biotinylated IAPP 1-37 to peptide coated plates (IAPP 1-37): significant binding
effect on toxicity of Aß 1-42 [4]: significantly inhibited
effect on toxicity of Aß 25-35 [4]: significantly inhibited
effect on toxicity of IAPP 1-37 [4]: significantly inhibited
effect on toxicity of IAPP 20-29 [4]: significantly inhibited
effect on toxicity of PrP 106-126 [4]: significantly inhibited
effect on toxicity of PrP 118-135 [4]: significantly inhibited
effect on toxicity of the Amyloid-Bri peptide [4]: unaffected
effect on toxicity of the Amyloid-Dan peptide [4]: unaffected
binding of biotinylated PrP 106-126 to peptide coated plates (PrP 106-126): significant binding

Biotinylated Kisspeptin-54: N-terminally Biotinylated Kisspeptin-54, purchased from Bachem or Alpha Diagnostics (Biotin-GTSLSPPPESSGSPQQPGLSAPHSRQIPAPQGAVLVQREKDLPNYNWNSFGLRF; ends and bridges not checked; UniProt Q15726 68-121, looked up)
binding to plates coated with Aß 1-42 fibrils (Aß 1-42 fibrils): bound
binding to plates coated with Aß 25-35 fibrils (Aß 25-35 fibrils): bound
binding to plates coated with IAPP 1-37 fibrils (IAPP 1-37 fibrils): bound
binding to plates coated with IAPP 20-29 fibrils (IAPP 20-29 fibrils): bound
binding to Amyloid-Bri fibrils (Amyloid-Bri fibrils): No binding
binding to Amyloid-Dan fibrils (Amyloid-Dan fibrils): No binding
binding to plates coated with PrP 106-126 fibrils (PrP 106-126 fibrils): bound
binding to plates coated with PrP 118-135 fibrils (PrP 118-135 fibrils): bound

Aß 31-35: Aß fragment, the shortest cytotoxic form of Aß (IIGLM; Amyloid-beta protein 40; UniProt P05067 702-706, looked up, fragment)
effect on binding of biotinylated Aß 1-42 to the Kissorphin-6 peptide [1]: no effect
effect on binding of biotinylated IAPP 1-37 to the Kissorphin-6 peptide [2]: no effect
effect on binding of biotinylated PrP 106-126 to the Kissorphin-6 peptide [3]: no effect

Aß 25-35: Aß fragment, functional neurotoxic domain (GSNKGAIIGLM)
effect on binding of biotinylated Aß 1-42 to the Kissorphin-6 peptide [1]: strongly inhibited
effect on binding of biotinylated IAPP 1-37 to the Kissorphin-6 peptide [2]: strongly inhibited
effect on binding of biotinylated PrP 106-126 to the Kissorphin-6 peptide [3]: strongly inhibited

Kisspeptin-54 (27-54): fragment 27-54 of Kisspeptin-54 (IPAPQGAVLVQREKDLPNYNWNSFGLRF)
binding of biotinylated Aß 1-42 to peptide coated plates (Aß 1-42): significant binding
binding of biotinylated IAPP 1-37 to peptide coated plates (IAPP 1-37): significant binding
effect on toxicity of Aß 1-42 [4]: significantly inhibited
effect on toxicity of Aß 25-35 [4]: significantly inhibited
effect on toxicity of IAPP 1-37 [4]: significantly inhibited
effect on toxicity of IAPP 20-29 [4]: significantly inhibited
effect on toxicity of PrP 106-126 [4]: significantly inhibited
effect on toxicity of PrP 118-135 [4]: significantly inhibited
effect on toxicity of the Amyloid-Bri peptide [4]: unaffected
effect on toxicity of the Amyloid-Dan peptide [4]: unaffected
binding of biotinylated PrP 106-126 to peptide coated plates (PrP 106-126): significant binding

Kisspeptin-10 (peptide)
LHRH release from mouse GT1 cells [5]: 4 fold

Kissorphin-6 (3-6): shorter sequence, SEQ ID No. 11, residues 3-6 of Kissorphin-6 (WNSF)
effect on Kisspeptin-10 stimulated release of immunoreactive LHRH [6]: no significant effect
effect on Kisspeptin-13 stimulated release of immunoreactive LHRH [6]: no significant effect
effect on toxicity of Aß 1-42 [4]: significantly inhibited
effect on toxicity of Aß 25-35 [4]: significantly inhibited
effect on toxicity of IAPP 1-37 [4]: no effect
effect on toxicity of IAPP 20-29 [4]: no effect
effect on toxicity of PrP 106-126 [4]: no effect
effect on toxicity of PrP 118-135 [4]: no effect
effect on toxicity of the Amyloid-Bri peptide [4]: unaffected
effect on toxicity of the Amyloid-Dan peptide [4]: unaffected

KTNMKHMAGAAAAGAVVGGLG (modifications not checked) [PrP 106-126]
Kd (Kissorphin-6 (human)): 34.2 nM

LPNYNWNSFGLRF (modifications not checked) [Kisspeptin-13, Q15726 109-121]
LHRH release from mouse GT1 cells [7]: 4 fold

KCNTATCATQRLANFLVHSSNNFGAILSSTNVGSNTY (modifications not checked) [IAPP 1-37]
Kd (Kissorphin-6 (human)): 11.6 nM
